Patent US10815204B2, “Process for the preparation of diphenylpyrazine derivatives” (HONOUR (R&D), priority 2016, dated 2020)

Tests used:
Assay type in all cases: physicochemical
[1] = Storage stability of Selexipag amorphous form (statement); details: at 5±3° C. and 25±2° C./RH 60±5%, 40±2° C./RH 75±5%
Description: (§1) In another aspect of the present invention, Selexipag amorphous form is stable at 5±3° C. and 25±2° C./RH (Relative humidity) 60±5%, 40±2° C./RH (Relative humidity) 75±5% and has the following stability data: […]

[2] = Stability of Selexipag amorphous form on storage, solid form by PXRD
Description: X-ray powder diffraction spectrum was measured on a bruker axs D8 advance X-ray powder diffractometer having a copper-a radiation. Adequate sample was gently flattered on a sample holder and scanned from 2 to 50 degrees two-theta, at 0.02 increment and scan speed of 0.2 Sec/Step. The sample was simply placed on the sample holder. The sample was rotated at 30 rpm at a voltage 40 KV and current 35 mA. In another aspect of the present invention, Selexipag amorphous form is stable at 5±3° C. and 25±2° C./RH (Relative humidity) 60±5%, 40±2° C./RH (Relative humidity) 75±5% and has the following stability data: […]

[3] = Stability of Selexipag amorphous form on storage, Chromatographic Purity (by HPLC)
Description: as §1

[4] = 25 ± 2° C./RH 60 ± 5%, 1st month
[5] = 25 ± 2° C./RH 60 ± 5%, 2nd Month
[6] = 25 ± 2° C./RH 60 ± 5%, 3rd Month
[7] = 25 ± 2° C./RH 60 ± 5%, 4th Month
[8] = 25 ± 2° C./RH 60 ± 5%, 5th Month
[9] = 40 ± 2° C./RH 75 ± 5%, 1st month
[10] = 40 ± 2° C./RH 75 ± 5%, 2nd Month
[11] = 40 ± 2° C./RH 75 ± 5%, 3rd Month

CC(C)N(CCCCOCC(=O)NS(C)(=O)=O)c1cnc(-c2ccccc2)c(-c2ccccc2)n1 [Selexipag amorphous form, 2-{4-[(5,6-diphenylpyrazin-2-yl)(isopropyl)amino]butoxy}-N-(methylsulfonyl)acetamide]
stability on storage [1]: stable
PXRD ([2]; 5 ± 3° C., 1st month): Amorphous
PXRD ([2]; 5 ± 3° C., 2nd Month): Amorphous
PXRD ([2]; 5 ± 3° C., 3rd Month): Amorphous
PXRD ([2]; 5 ± 3° C., 4th Month): Amorphous
PXRD ([2]; 5 ± 3° C., 5th Month): Amorphous
PXRD ([2]; 5 ± 3° C., 6th Month): Amorphous
PXRD ([2]; 5 ± 3° C., Initial): Amorphous
PXRD [2, 4]: Amorphous
PXRD [2, 5]: Amorphous
PXRD [2, 6]: Amorphous
PXRD [2, 7]: Amorphous
PXRD [2, 8]: Amorphous
PXRD ([2]; 25 ± 2° C./RH 60 ± 5%, Initial): Amorphous
PXRD [2, 9]: Amorphous
PXRD [2, 10]: Amorphous
PXRD [2, 11]: Amorphous
PXRD ([2]; 40 ± 2° C./RH 75 ± 5%, Initial): Amorphous
Chromatographic Purity (by HPLC) ([3]; 5 ± 3° C., 1st month): 99.63
Chromatographic Purity (by HPLC) ([3]; 5 ± 3° C., 2nd Month): 99.66
Chromatographic Purity (by HPLC) ([3]; 5 ± 3° C., 3rd Month): 99.76
Chromatographic Purity (by HPLC) ([3]; 5 ± 3° C., 4th Month): 99.76
Chromatographic Purity (by HPLC) ([3]; 5 ± 3° C., 5th Month): 99.70
Chromatographic Purity (by HPLC) ([3]; 5 ± 3° C., 6th Month): 99.76
Chromatographic Purity (by HPLC) ([3]; 5 ± 3° C., Initial): 99.63
Chromatographic Purity (by HPLC) [3, 4]: 99.63
Chromatographic Purity (by HPLC) [3, 5]: 99.59
Chromatographic Purity (by HPLC) [3, 6]: 99.72
Chromatographic Purity (by HPLC) [3, 7]: 99.78
Chromatographic Purity (by HPLC) [3, 8]: 99.69
Chromatographic Purity (by HPLC) ([3]; 25 ± 2° C./RH 60 ± 5%, 6th Month): 99.68
Chromatographic Purity (by HPLC) ([3]; 25 ± 2° C./RH 60 ± 5%, Initial): 99.63
Chromatographic Purity (by HPLC) [3, 9]: 99.62
Chromatographic Purity (by HPLC) [3, 10]: 99.58
Chromatographic Purity (by HPLC) [3, 11]: 99.66
Chromatographic Purity (by HPLC) ([3]; 40 ± 2° C./RH 75 ± 5%, 4th Month): 99.69
Chromatographic Purity (by HPLC) ([3]; 40 ± 2° C./RH 75 ± 5%, 5th Month): 99.66
Chromatographic Purity (by HPLC) ([3]; 40 ± 2° C./RH 75 ± 5%, 6th Month): 99.65
Chromatographic Purity (by HPLC) ([3]; 40 ± 2° C./RH 75 ± 5%, Initial): 99.63
